From US8450336B2, “Use of D-serine derivatives for the treatment of anxiety disorders” (priority 2006, dated 2013)
“And” between values parts separate entries of the source, which are not always exact repeats. Equal values may be shown once.

How the values were obtained:
[1] = tested on: CD-1 mice; experiment: Marble Burying Assay; type: in vivo; details: for Number of marbles buried: 22 marbles, 30 min, mean±SEM, at least 8 mice
Procedure: (§1) Male, experimentally naïve CD-1 mice of body weight range 25-35 g were used in these studies. Following a pretreatment with test drug or vehicle control the animals were singly placed within a Perspex chamber of dimension (48 cm×28 cm×20 cm; L×W×H) containing fresh sawdust bedding onto which 22 marbles were evenly spaced on the surface. After a 30 min period, the mice were removed and the number of marbles that were covered by at least ⅔rd by sawdust were counted as buried. Typically mice will bury a significant proportion of the marbles, probably to hide the potential threat posed by the marbles which represent a novel stimulus to the animal. […] One interpretation for this effect is that diazepam reduces the threat perceived to the animal by the close presence of the marbles (Broekkamp et al, 1986 Eur. J. Pharmacol. 126: 223-229; Nicolas et al, 2006 Eur. J. Pharmacol. 547; 106-115). In a separate group of sex, age and weight matched CD-1 mice, equivalent doses of test compound were evaluated on motor function using a fixed speed (16 r.p.m) rotorod assay. The best score from 3 attempts was recorded, with the maximum test duration of 60 s. Testing was conducted at 40 min post injection, i.e. approximate mid-point of the marble-burying assay.
Drug testing was run according to a between subjects design. […] The (S)-enantiomer of Lacosamide was ineffective in this assay.

[2] = tested on: Sprague-Dawley rats; experiment: Conditioned Emotional Response (CER) assay; type: in vivo; details: for Total number lever press: 40 min test session; for Total number lever press / Suppression ratio (SR): mean±SEM; for Suppression ratio (SR): at least 10 rats, *p<0.05 vs vehicle; for Efficacy in the CER assay (effect on SR), in words: rat, in vivo; for Magnitude of the SR effect compared with diazepam: diazepam 2 mg/kg i.p
Procedure: Male, Sprague-Dawley rats of approximate body weight 350-450 g were placed on a restricted food diet (45 min free access per day) and trained over a 1-2 week period to press a lever for food reward (45 mg food pellet). […] Test session length was for a 40 min test period, and test sessions were run 5 days/week. Once stable response rates were attained, 2 periods of a 2 min light and tone cue (conditioning stimulus, CS) was introduced into the test session. The 2 min CS was terminated by a 0.5 s unavoidable footshock of 0.3-0.8 mA intensity (UCS). The first CS-UCS was at approximately 10 min (range 5-15 min) and the second CS-UCS pairing at approximately 30 min (range 25-35 min) within the test session. On drug test days, and occasional training days, footshock was not delivered. The number of lever presses recorded during the two 2 min CS periods (response A), and the number of lever presses recorded in the 2 min periods immediately prior to the two CS periods (response B) were measured and a suppression ratio (SR) was calculated according to the formula (A/A+B). Thus a SR of 0 reflects no responding during the CS periods, i.e. a complete suppression of lever pressing for food by the CS, and a SR of 0.5 reflects equivalent responding during both the CS and 2 min period prior to CS, i.e. no suppression of lever pressing for food by the CS. Thus in drug untreated animals, SR value was typically 0-0.1 and established anti-anxiety agents such as diazepam increased this value to 0.4-0.5 (for literature examples see Stanhope and Dourish (1996) Psychopharmacol. 128: 293-303; Mirza et al (2005) Psychopharmacol. 180: 159-168). In addition to SR, the total number of lever presses emitted by the animals over the 40 min test session was measured.
Drug testing was conducted according to a repeated measures design, with each animal receiving each dose of drug treatment or vehicle control in a balanced design. Typically drug testing was conducted on Tuesdays and Fridays, with the animals drug untreated but otherwise run for baseline purposes. In each experiment a standard dose of diazepam (2 mg/kg i.p) was included as a positive control.

[3] = tested on: Sprague-Dawley rats; details: drug untreated animals typically 0-0.1; literature examples; cited from earlier work
[4] = tested on: CD-1 mice; experiment: Fixed speed (16 r.p.m) rotorod assay of motor function; type: in vivo; details: median of at least 4 mice, maximum score=60 s, 40 min post injection
Procedure: as §1

[5] = tested on: CD-1 mice; details: at doses with no obvious effect on general motor function; literature; cited from earlier work
[6] = dose 3 (mg/kg), i.p or oral route
[7] = dose 2 (2 mg/kg i.p, positive control), 2 mg/kg
[8] = dose 10 (mg/kg), i.p or oral route
[9] = dose 30 (mg/kg), i.p or oral route

Compound	melting point	Efficacy in the marble burying assay, in words ([1]; mouse, in vivo)	Total number lever press ([2]; dose 30 (mg/kg))	Suppression ratio (SR) ([2]; dose 30 (mg/kg))	Efficacy in the CER assay (effect on SR), in words [2]	Number of marbles buried [1, 6]	Rotorod score ([4]; dose 3)	Number of marbles buried [1, 8]	Number of marbles buried [1, 9]	Rotorod score ([4]; dose 10)	Rotorod score ([4]; dose 30)	Magnitude of the SR effect compared with diazepam [2]	Total number lever press ([2]; dose 3 (mg/kg))	Suppression ratio (SR) ([2]; dose 3 (mg/kg))	Total number lever press ([2]; dose 10 (mg/kg))	Suppression ratio (SR) ([2]; dose 10 (mg/kg))	other results
CC(=O)NC(COC(F)F)C(=O)NCc1ccccc1 (stereo not drawn)	173.3 °C	–	–	–	–	–	–	–	–	–	–	–	–	–	–	–	–
COC[C@H](NC(C)=O)C(=O)NCc1ccccc1 (single isomer, unassigned) [(S)-enantiomer of Lacosamide, reference compound]	–	ineffective	1403 ± 158	0.06 ± 0.03	ineffective	–	–	–	–	–	–	–	–	–	–	–	–
CN1C(=O)CN=C(c2ccccc2)c2cc(Cl)ccc21 [Diazepam, reference compound]	–	produced a similar profile	–	–	–	2.0 ± 0.8	40 s	–	–	–	–	–	–	–	–	–	Number of marbles buried ([1]; dose 0.3, i.p or oral route): 12.6 ± 1.4; Number of marbles buried ([1]; dose 1, i.p or oral route): 9.4 ± 1.7; Number of marbles buried ([1]; dose 2, i.p or oral route): 2.2 ± 1.2; SR value typically reached with established anti-anxiety agents [3]: 0.4-0.5; Rotorod score ([4]; dose 0.3): 60 s; Rotorod score ([4]; dose 1): 60 s; Effect of anti-anxiety drugs on marbles buried by mice, in words [5]: reduce the number of marbles buried; Total number lever press [2, 7]: 899 ± 146 and 1015 ± 155 and 1151 ± 138 and 1239 ± 183; Suppression ratio (SR) [2, 7]: 0.39 ± 0.04* and 0.44 ± 0.03* and 0.32 ± 0.07*
CC(=O)N[C@H](COC(F)F)C(=O)NCc1ccccc1 [Example 19.1, (2R)-2-(Acetylamino)-N-benzyl-3-(difluoromethoxy)propanamide]	186.9 °C	active in decreasing marble burying in a dose-related manner	724 ± 135	0.38 ± 0.04*	active in increasing the SR in a dose-related manner	17.0 ± 1.1	60 s	9.7 ± 2.3	2.3 ± 2.0	60 s	13 s	equivalent to diazepam	1169 ± 145	0.16 ± 0.03	1093 ± 169	0.15 ± 0.05	–
CC(=O)N[C@H](COC(F)F)C(=O)NCc1ccc(F)cc1 [Example 20.1, (2R)-2-(Acetylamino)-3-(difluoromethoxy)-N-(4-fluorobenzyl)propanamide]	162.7 °C	active in decreasing marble burying in a dose-related manner	587 ± 84	0.43 ± 0.05*	active in increasing the SR in a dose-related manner	15.0 ± 1.2	60 s	14.9 ± 0.9	10.3 ± 1.5	60 s	60 s	equivalent to diazepam	1188 ± 95	0.17 ± 0.06	1170 ± 98	0.28 ± 0.07*	Total number lever press ([2]; dose 20 (mg/kg)): 849 ± 78; Suppression ratio (SR) ([2]; dose 20 (mg/kg)): 0.33 ± 0.06*
CC(=O)N[C@H](COC(F)F)C(=O)NCc1ccc(Cl)cc1 [Example 23.1, (2R)-2-(acetylamino)-N-(4-chlorobenzyl)-3-(difluoromethoxy)propanamide]	–	active in decreasing marble burying in a dose-related manner	578 ± 79	0.26 ± 0.04*	active in increasing the SR in a dose-related manner	15.8 ± 0.8	60 s	12.3 ± 1.2	2.0 ± 0.7	60 s	60 s	equivalent to diazepam	1091 ± 169	0.09 ± 0.04	1034 ± 131	0.17 ± 0.04*	–
COC[C@@H](NC(C)=O)C(=O)NCc1ccccc1 [Lacosamide, (+)-(2R)-2-(acetylamino)-N-benzyl-3-methoxypropanamide, reference compound]	–	–	727 ± 123	0.36 ± 0.07*	–	16.8 ± 0.8	60 s	18.0 ± 0.7	12.4 ± 1.4	60 s	60 s	equivalent to diazepam	1166 ± 185	0.16 ± 0.07	1121 ± 138	0.18 ± 0.08	Efficacy in the marble burying assay, in words ([1]; oral doses of 3-30 mg/kg, compared to vehicle pretreated controls): significantly reducing the number of marbles buried; Efficacy in the CER assay (effect on SR value), in words ([2]; doses 3-30 mg/kg i.p.): significantly increasing the SR value
